Like-named read-outs stand apart in the source and are kept apart here.
What was measured:
[1] = tested on: IL-17 production in human blood; test: Effect on IL-17 production in human blood; format: cell-based; conditions: 72 h; 10 μM test compound; human peripheral blood, IL-23 and Dynabeads stimulation, 3 days; read-out: percent inhibition at 10 μM (IL-17 production)
Protocol: Effect on IL-17 Production in Human Blood
The inhibitory effect of the test compound on IL-17 production in human blood was evaluated as follows. First, 150 μL of peripheral blood collected from healthy individuals using heparinized vacuum blood collection tubes was dispensed into each well of a 96-well plate (Corning), and 45 μL of RPMI 1640 medium (Gibco) containing 10% fetal bovine serum (FBS, Hyclone) and 30 μL of the test compound diluted with the medium were added to each well. The plate was then cultured for 30 min at 37° C. The cells were subsequently stimulated by adding 30 μL of 100 ng/mL human IL-23 (R&D) and 45 μL of Dynabeads Human (Invitrogen) to each well and culturing the plate for 3 days at 37° C. In wells without stimulation, 75 μL of RPMI 1640 medium containing 10% FBS was added instead of the IL-23 and Dynabeads solution. After culturing for 3 days, the culture supernatant was collected, and the amount of IL-17 in the supernatant was measured using an IL-17 ELISA kit (R&D).
The results (percent inhibition of IL-17 production with 10 μM of the test compound) measured by the above-mentioned method are shown in Table 8.

RORγt [2] = biological target: T1, RORγt (Homo sapiens, UniProt P51449); test: Jurkat reporter test (human IL-17 ROR response element luciferase, RORγt vector); format: cell-based; conditions: test compound 3 μM, Jurkat cells, read-out: luminescence level inhibitory rate at test compound 3 μM
T1 sequence (P51449 1-497 isoform P51449-2): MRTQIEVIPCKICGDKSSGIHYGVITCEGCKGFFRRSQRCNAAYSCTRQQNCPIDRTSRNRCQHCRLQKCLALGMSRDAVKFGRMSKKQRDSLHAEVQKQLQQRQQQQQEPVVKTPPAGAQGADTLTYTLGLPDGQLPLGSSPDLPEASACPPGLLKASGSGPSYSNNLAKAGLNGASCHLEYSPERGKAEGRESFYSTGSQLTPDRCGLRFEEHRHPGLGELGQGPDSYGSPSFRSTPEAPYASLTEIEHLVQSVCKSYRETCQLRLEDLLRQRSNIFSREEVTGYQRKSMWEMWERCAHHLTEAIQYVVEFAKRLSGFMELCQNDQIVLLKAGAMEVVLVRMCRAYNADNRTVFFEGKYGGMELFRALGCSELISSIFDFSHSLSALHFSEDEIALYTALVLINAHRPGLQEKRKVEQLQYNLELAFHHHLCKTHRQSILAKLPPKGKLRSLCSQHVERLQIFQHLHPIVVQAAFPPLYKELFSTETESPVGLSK
Protocol: The Jurkat cells used for the reporter test were cultured in a culture medium (RPMI (Invitrogen), 10% FCS (AusGeneX), 100 U/mL penicillin, 100 μg/mL streptomycin). On the day of the test, 4×10^7 cells were recovered by a centrifugal operation (1000 rpm, 5 min.) and suspended in PBS (phosphate buffered saline) (Invitrogen). Thereafter, the cells were recovered again by a centrifugal operation, and suspended in 2 mL of R buffer (NEON transfection kit, Invitrogen). […] Gene transfer was performed by Electroporation apparatus (NEON, Invitrogen) under the conditions of pulse voltage 1350 V, interval 10 milliseconds, number of times 3. The cells after gene transfer were suspended in 40 mL of a reaction medium (RPMI, 10% Lipid reduced FCS (HyClone), 10 mM HEPES (pH 7.5), 100 U/mL penicillin, 100 μg/mL streptomycin, 5 μM lovastatin), and plated in a 96 well plate by 90 μL. A test compound diluted with the reaction medium was added by 10 μL, and the cells were cultured overnight in an incubator. Bright-Glo (Promega) was added by 100 μL, and the mixture was stirred at room temperature for 10 min, and the luminescence level was measured by Envision (PerkinElmer).

RORγt [3] = biological target: T1, RORγt; test: Cofactor recruitment test (Alpha Screen, biotinylated SRC-1 peptide); format: biochemical; conditions: read-out: signal value inhibitory rate at test compound 1 μM
Protocol: Cofactor Recruitment Test
Cofactor recruitment test was performed by Alpha Screen (Histidine Detection Kit, PerkinElmer) method. First, a test compound was diluted with an assay buffer (50 mM Tris-HCl (pH 7.5), 50 mM KCl, 1 mM DTT, 0.1% BSA) and added to a 384 well plate by 5 μL. […] The mixture was stood in a dark place for 1 hr, and the signal value was measured by Envision (PerkinElmer).

IL-17A gene expression = test: Effect on IL-23-induced cytokine expression in mice; format: in vivo, mouse; conditions: 10 mg/kg oral, 30 min before and 8 hr after IL-23; ear of Balb/c mice; versus the negative control group
Protocol: Effect on IL-23-Induced Cytokine Expression in Mice
A mouse IL-23 solution (500 ng/10 μL, prepared by Takeda Pharmaceutical Company Limited) or PBS (10 μL, negative control group) was administered intradermally in the ear of Balb/c mice (Charles River Japan, male, 7 weeks old). Twenty-four hr after administration, the ear was resected under isoflurane anesthesia. The test compound was suspended in 0.5% methylcellulose and administered orally 30 min before and 8 hr after IL-23 administration.
RNA extraction from the ear tissue and quantitative PCR were performed as follows. Specifically, ear tissue 5 mm in diameter was punched from an area of the resected ear centering on the IL-23 injection site, and the tissue was immersed in RNAlater (QIAGEN) for at least 18 hr. The RNAlater-treated ear tissue was homogenized in 350 μL of RLT buffer (RNeasy mini kit, QIAGEN) and treated (55° C., 10 min) with Proteinase K (QIAGEN). Total RNA was then extracted according to the RNeasy mini kit protocol. The RNA thus obtained was then reverse transcribed into cDNA using the High-Capacity RNA-to-cDNA kit (Applied Biosystems), and the amount of each gene expressions was measured by real-time PCR (Viia7™, Applied Biosystems). The PCR buffer used was TaqMan Fast Advanced Master Mix (Applied Biosystems), and TaqMan Gene Expression Assays (Applied Biosystems) Mm00439618_m1 (IL-17A) and 4352341E (β-actin) were used for each gene detection. The IL-17A gene expression level was normalized to the β-actin gene expression level, and the percent inhibition of IL-17A gene expression with the test compound was then calculated.
The results (percent inhibition of IL-17A gene expression with oral administration of the test compound) measured by the above-mentioned method are shown in Table 9.

RORγt [4] = biological target: T1, RORγt; test: RORγt binding test using fluorescent-labeled synthetic ligand (TR-FRET); conditions: read-out: binding inhibitory rate of fluorescent-labeled synthetic ligand to RORγt at test compound 1 μM
Protocol: RORγt Binding Test using Fluorescent-Labeled Synthetic Ligand
The binding activity of the test compound to RORγt was measured by a time resolved fluorescence resonance energy transfer method (TR-FRET) utilizing histidine-tagged RORγt, fluorescent-labeled synthetic ligand and terbium-labeled anti-histidine tag antibody (Invitrogen). First, a test compound diluted with an assay buffer (20 mM Tris-HCl (pH 7.5), 100 mM NaCl, 1 mM DTT, 0.1% BSA) was added to a 384 well plate by 3 μL. Then, RORγt diluted with an assay buffer to 240 nM was added by 3 μL, after which fluorescent-labeled synthetic ligand diluted with the assay buffer to 12 μM was added by 3 μL, and the mixture was stood at room temperature for 20 min. Thereafter, a terbium-labeled anti-histidine tag antibody diluted with the assay buffer to 8 nM was added by 3 μL. The mixture was stood at room temperature for 20 min, and fluorescence intensity (excitation wavelength 320 nm, fluorescence wavelength 520 nm, delay time 100 microseconds) was measured by Envision (PerkinElmer).

Row | SMILES | inhibition at 10 µM [1] [%] | inhibition at 3 µM (RORγt [2]) [%] | inhibition at 1 µM (RORγt [3]) [%] | percent inhibition of IL-17A gene expression (IL-17A gene expression) [%] | inhibition at 1 µM (RORγt [4]) [%] | inhibition at 3 µM (RORγt [2]; Jurkat) [%] | inhibition at 1 µM (RORγt [3]; test compound 1 μM) [%] | inhibition at 1 µM (RORγt [4]; test compound 1 μM) [%]
1 | CCOc1ccc2c(c1)CCN(C(=O)[C@H]1C[C@H](C(=O)O)C1)[C@H]2C(=O)Nc1cc(F)c([Si](C)(C)C)c(F)c1 [Example 9, trans-3-(((1R)-1-((3,5-difluoro-4-(trimethylsilyl)phenyl)carbamoyl)-6-ethoxy-3,4-dihydroisoquinolin-2(1H)-yl)carbonyl)cyclobutanecarboxylic acid] | 93.5 | 99 | 88 | 57 | 102 | – | – | –
2 | COc1ccc2c(n1)CCN(C(=O)[C@H]1C[C@H](CC(=O)O)C1)[C@H]2C(=O)Nc1cc(F)c2c(c1)CCC2(C)C [Example 20, (trans-3-(((5R)-5-((7-fluoro-1,1-dimethyl-2,3-dihydro-1H-inden-5-yl)carbamoyl)-2-methoxy-7,8-dihydro-1,6-naphthyridin-6(5H)-yl)carbonyl)cyclobutyl)acetic acid] | – | – | – | 99 | – | – | – | –
3 | CCOc1ccc2c(c1)CCN(C(=O)[C@H]1C[C@@H](C(=O)O)C1)[C@H]2C(=O)Nc1cc(F)c([Si](C)(C)C)c(F)c1 [Example 8, cis-3-(((1R)-1-((3,5-difluoro-4-(trimethylsilyl)phenyl)carbamoyl)-6-ethoxy-3,4-dihydroisoquinolin-2(1H)-yl)carbonyl)cyclobutanecarboxylic acid] | 82.9 | 100 | 90 | 72 | 102 | – | – | –
4 | CCOCC(C)(C)c1c(F)cc(NC(=O)[C@H]2c3ccc(OCC)cc3CCN2C(=O)[C@H]2C[C@@H](CC(=O)O)C2)cc1F [Example 18, (cis-3-(((1R)-6-ethoxy-1-((4-(1-ethoxy-2-methylpropan-2-yl)-3,5-difluorophenyl)carbamoyl)-3,4-dihydroisoquinolin-2(1H)-yl)carbonyl)cyclobutyl)acetic acid] | 80 | – | – | – | – | 97 | 70 | 101
5 | COc1ccc2c(c1)CCN(C(=O)[C@H]1C[C@@H](C(=O)O)C1)[C@H]2C(=O)Nc1ccc([Si](C)(C)C)c(F)c1 [Example 32, cis-3-(((1R)-1-((3-fluoro-4-(trimethylsilyl)phenyl)carbamoyl)-6-methoxy-3,4-dihydroisoquinolin-2(1H)-yl)carbonyl)cyclobutanecarboxylic acid] | – | 101 | 91 | 83 | 102 | – | – | –
6 | COCc1ccc2c(c1)CCN(C(=O)[C@H]1C[C@H](CC(=O)O)C1)[C@H]2C(=O)Nc1cc(F)c2c(c1)CCC2(C)C [Example 24, (trans-3-(((1R)-1-((7-fluoro-1,1-dimethyl-2,3-dihydro-1H-inden-5-yl)carbamoyl)-6-(methoxymethyl)-3,4-dihydroisoquinolin-2(1H)-yl)carbonyl)cyclobutyl)acetic acid] | 92.7 | – | – | – | – | 101 | 80 | 101
7 | COc1ccc2c(c1)CCN(C(=O)[C@H]1C[C@@H](CC(=O)O)C1)[C@H]2C(=O)Nc1cc(F)c([Si](C)(C)C)c(F)c1 [Example 25, (cis-3-(((1R)-1-((3,5-difluoro-4-(trimethylsilyl)phenyl)carbamoyl)-6-methoxy-3,4-dihydroisoquinolin-2(1H)-yl)carbonyl)cyclobutyl)acetic acid] | – | 101 | 93 | 92 | 102 | – | – | –
8 | COc1ccc2c(n1)CCN(C(=O)[C@H]1C[C@@H]1CC(=O)O)[C@H]2C(=O)Nc1cc(F)c([Si](C)(C)C)c(F)c1 [Example 13, ((1R,2S)-2-(((5R)-5-((3,5-difluoro-4-(trimethylsilyl)phenyl)carbamoyl)-2-methoxy-7,8-dihydro-1,6-naphthyridin-6(5H)-yl)carbonyl)cyclopropyl)acetic acid] | – | 104 | 83 | 91 | 102 | – | – | –
